Consider 1 compound from patent publication US12162836B2, “N-acyl-{4-[(4-aryl-phenyl)sulfonylmethyl]piperidine} compounds and their therapeutic use” (Modern Biosciences Limited, priority 2019, dated 2024).

The data set relates to human, rat (Sprague Dawley) and dog (Beagle) hepatocytes. As to the kind of experiment: Metabolite identification (biaryl metabolite detection) in cryopreserved hepatocytes. The format is in vitro ADME. The note with it: primary hepatocyte incubations, 10 μM, final time point (60 minutes). As to the method:
The formation of metabolites in humans, rats and dogs was assessed to determine the propensity of the compounds to form a biaryl metabolite.
In vitro studies on the metabolism of drugs are usually performed using liver preparations such as isolated perfused livers, liver slices, liver homogenates, isolated cryopreserved hepatocytes, subcellular liver fractions (S9, cytosol, and microsomes), or recombinant metabolizing enzymes overexpressed on non-expressing cell systems, particularly CYP enzymes. Cryopreserved hepatocytes contain all the enzymes and co-factors needed for phase I and phase II drug metabolism, making them an excellent in vitro model for assessment of drug metabolic stability and metabolite profiling.
Cryopreserved human, rat (Sprague Dawley) and dog (Beagle) hepatocytes were revived from liquid nitrogen and plated at a seeding density of 2×10^6 cells/mL (>95% viability). Following a 15 minute incubation at 37° C. a sample was removed for a zero (0) minute time point assessment. […]
All samples were processed for analysis by protein precipitation using 500 μL ice-cold acetonitrile and analysed with a fit-for-purpose LC-MS/MS method.
At the completion of the study, the results were expressed as detection of the biaryl metabolite at the final time point.

`CC(=O)N1CCC(CS(=O)(=O)c2ccc(-c3ccc(F)cc3F)cc2)CC1` [NASMP-01, 1-(4-(((2′,4′-Difluoro-[1,1′-biphenyl]-4-yl)sulfonyl)methyl)piperidin-1-yl)ethan-1-one]: the “Biaryl metabolite detected?” value is on record as “No”.
